In patent publication US20120313040A1, “COATING LIQUID, OPTICAL ANISOTROPIC FILM AND IMAGE DISPLAY DEVICE” (NITTO DENKO CORPORATION, priority 2011, published 2012):
Read-outs that look alike come from different tables or passages of the source.

What was measured:
[1] = Observation of liquid crystal phase of the coating liquid under a polarizing microscope; format: physicochemical; details: 30 mass % in ion-exchanged water, observed at 23° C.
Text: A small amount of the coating liquid was sandwiched between two glass slides, and a liquid crystal phase thereof was observed using a polarizing microscope (manufactured by Olympus Corporation, product name: “OPTIPHOT-POL”) equipped with a large-sized sample heating/cooling stage for microscope (manufactured by Japan High Tech Co., Ltd., product: name “10013L”).

[2] = Dissolution in ion-exchanged water to prepare a 30 mass % coating liquid; format: physicochemical
Description: The lyotropic liquid crystalline compound of formula (4) was dissolved in ion-exchanged water, thereby preparing a coating liquid having a concentration of the lyotropic liquid crystalline compound of 30 mass %.
The lyotropic liquid crystalline compound of formula (5) was dissolved in ion-exchanged water, thereby preparing a coating liquid having a concentration of the lyotropic liquid crystalline compound of 30 mass %.
In Comparative Example 1, there was used a perylenetetracarboxylic acid diimide represented by formula (6), which was an intermediate product in Synthesis Example 1 of Lyotropic Liquid Crystalline Compound. Using this compound, it was tried to obtain a coating liquid having a concentration of the lyotropic liquid crystalline compound of 30 mass % in the same manner as in Example 1.
In Comparative Example 2, there was used a compound represented by formula (7), which was an intermediate product in Synthesis Example 2 of Lyotropic Liquid Crystalline Compound. Using this compound, it was tried to obtain a coating liquid having a concentration of the lyotropic liquid crystalline compound of 30 mass % in the same manner as in Example 1.

SMILES	liquid crystal phase of coating liquid [1]	solubility in ion-exchanged water ([2]; ion-exchanged water, target concentration 30 mass %)	solubility in ion-exchanged water [2]
C[n+]1ccc(N2C(=O)c3ccc4c5ccc6c7c(ccc(c8ccc(c3c48)C2=O)c75)C(=O)N(c2cc[n+](C)cc2)C6=O)cc1 [formula (4), N,N′-bis(4-N-methylpyridyl)-3,4,9,10-perylenecarboxylic acid diimide dichloride]	nematic liquid crystal phase	dissolved in water easily and well	
C[n+]1ccc2c(c1)nc1c3ccc4c5ccc6c(=O)n7c8cc[n+](C)cc8nc7c7ccc(c8ccc(c(=O)n21)c3c84)c5c67 [formula (5)]	nematic liquid crystal phase		dissolved in water easily and well
O=C1c2ccc3c4ccc5c6c(ccc(c7ccc(c2c37)C(=O)N1c1ccncc1)c64)C(=O)N(c1ccncc1)C5=O [formula (6), perylenetetracarboxylic acid diimide, reference compound]			scarcely dissolved in ion-exchanged water
O=c1c2ccc3c4ccc5c6c(ccc(c7ccc(c2c37)c2nc3cnccc3n12)c46)c(=O)n1c2ccncc2nc51 [formula (7), reference compound]	no liquid crystal phase		scarcely dissolved in ion-exchanged water
